Measured values from patent US5985905A, “Indole derivatives for the treatment of osteoporosis” (priority 1996, dated 1999).

Tests used:
osteoclast proton pump = conditions: avian osteoclast membrane vesicles, ATP-driven acidification; cited from earlier work
osteoclast cultures = conditions: cited from earlier work
[1] = target: bafilomycin-sensitive ATPase in chicken osteoclasts; experiment: Inhibition of bafilomycin-sensitive ATPase activity in purified osteoclast membrane vesicles (Pi release); format: biochemical; conditions: chicken osteoclast membranes, read-out: IC50 (μM) APase assay
Experimental: Preparation of crude bone microsomes from calcium-starved egg-laying hens. Vesicles were prepared from medullar bone obtained from tibiae and femurs of egg-laying hens which were calcium-starved for at least 15 days. Briefly, bone fragments were scraped with a 24 scalpel blade, suspended in 40 ml of isolation medium (0.2 M sucrose, 50 mM KCl, 10 mM Hepes, 1 mM EGTA, 2 mM dithiotheitrol, pH 7.4) and filtered through a 100 μm pore size nylon mesh. The whole procedure was performed at 4° C. After homogenisation in a potter (20 strokes) in 40 ml of isolation medium an initial centrifugation (6,500×gmax ×20 min) was performed to remove mitochondria and lysosomes. […] The protein content was determined using a Biorad colourimetric kit according to Bradford [M. Bradford, Ana. […]
Inhibition of bafilomycin-sensitive ATPase activity was assessed in purified membrane vesicles by measuring the release of inorganic phosphate (Pi) during 30 min of incubation at 37° C. in a 96-well plate either in the presence or in the absence of bafilomycin Al. […] Absorbance at 650 nm was measured after 2 min using a microplate reader. Results are expressed as μmol (Pi)×mg protein^-1 ×hour^-1 and, for each experiment, represent the mean±sem of triplicates.

Row | IC50 [1] [µM] | SMILES | inhibition of proton transport (osteoclast proton pump) | inhibition of bone resorption (osteoclast cultures)
1 |  | COc1ccc2[nH]c([S+]([O-])Cc3ncc(C)c(OC)c3C)nc2c1 (centres unmarked) [omeprazole] | not inhibited | 
2 |  | CCN1C(=O)C=CC1=O [N-ethylmaleimide (NEM), N-ethylmaleimide] | inhibited | 
3 |  | [Na+].[Na+].[Na+].[O]=[V]([O-])([O-])[O-] [sodium orthovanadate] | not inhibited | 
4 |  | CO/C1=C\C(C)=C\[C@@H](C)[C@@H](O)[C@@H](C)C/C(C)=C/C=C/[C@H](OC)[C@@H]([C@@H](C)[C@@H](O)[C@H](C)[C@@]2(O)C[C@@H](O)[C@H](C)[C@@H](C(C)C)O2)OC1=O [bafilomycin A1] | inhibited | able to inhibit bone resorption
5 |  | Cc1nc2c(OCc3ccccc3)cccn2c1CC#N [SCH 28080] | not inhibited | 
6 |  | C[C@@H]1O[C@@H](O[C@H]2C[C@@H](O)[C@]3(CO)[C@H]4[C@H](O)C[C@]5(C)[C@@H](C6=CC(=O)OC6)CC[C@]5(O)[C@@H]4CC[C@]3(O)C2)[C@H](O)[C@H](O)[C@H]1O [ouabain] | not inhibited | 
7 | 8.5 | O=C1OCCO/C1=C\C=C\c1cc2cc(Cl)c(Cl)cc2[nH]1 [Example 1, (2Z,4E) 3-[3-(5,6-Dichloro-1H-indol-2-yl)-2-propenyliden]-1,4-dioxan-2-one] |  | 
